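Cultured in 96-well plates, cells were exposed to test compound for 48 hours across five concentrations. GI50 is the concentration that inhibits growth by half.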 The source made the active and inactive calls. No stated cut-off is given here; in the data, active = GI50 up to about 1.1 µM and inactive = higher.
Experiments:
Experiment in all cases: inhibition of tumour cell growth, NCI panel, 48 h
CCRF-CEM = tested on: CCRF-CEM
HCT-15 = tested on: HCT-15
HOP-62 = tested on: HOP-62
HOP-92 = tested on: HOP-92
HT-29 = tested on: HT-29
K562 = tested on: K562
M14 = tested on: M14
MDA-N = tested on: MDA-N
NCI-H23 = tested on: NCI-H23
NCI-H460 = tested on: NCI-H460
NCI-H522 = tested on: NCI-H522
NCI/ADR-RES = tested on: NCI/ADR-RES
OVCAR-5 = tested on: OVCAR-5
RPMI-8226 = tested on: RPMI-8226
RXF 393 = tested on: RXF 393
SF-295 = tested on: SF-295
SF-539 = tested on: SF-539
SK-MEL-5 = tested on: SK-MEL-5
SK-OV-3 = tested on: SK-OV-3
SW-620 = tested on: SW-620

Compound | GI50 (CCRF-CEM) | GI50 (HCT-15) [µM] | GI50 (HOP-62) | GI50 (HOP-92) | GI50 (HT-29) | GI50 (K562) | GI50 (M14) | GI50 (MDA-N) | GI50 (NCI-H23) | GI50 (NCI-H460) | GI50 (NCI-H522) | GI50 (NCI/ADR-RES) | GI50 (OVCAR-5) | GI50 (RPMI-8226) | GI50 (RXF 393) | GI50 (SF-295) | GI50 (SF-539) | GI50 (SK-MEL-5) | GI50 (SK-OV-3) | GI50 (SW-620)
O=C(C[n+]1ccc2ccccc2c1)c1ccc2ccc3ccccc3c2c1 | 0.815 µM (active) | 5.07 | 5.94 µM (inactive) | 1.62 µM (inactive) | 1.03 µM (active) | 0.151 µM (active) | 2.22 µM (inactive) | 0.647 µM (active) | 2.38 µM (inactive) | 0.741 µM (active) | 6.38 µM (inactive) | 15.2 µM (inactive) | 5.07 µM (inactive) | 0.129 µM (active) | 5.02 µM (inactive) | 0.824 µM (active) | 0.483 µM (active) | 3.03 µM (inactive) | 6.82 µM (inactive) | 1.31 µM (inactive)
COC(=O)c1c(C(=O)OC)c2ccc(-c3ccc(Cl)cc3)nn2c1C(=O)c1ccc([N+](=O)[O-])cc1 | 17.1 µM (inactive) | 25.2 | > 100 µM (inactive) | 10.8 µM (inactive) | 37.2 µM (inactive) | 14.2 µM (inactive) | 40.6 µM (inactive) | 66.2 µM (inactive) | > 100 µM (inactive) | > 100 µM (inactive) | 17.4 µM (inactive) | > 100 µM (inactive) | > 100 µM (inactive) | 16.7 µM (inactive) | 8.83 µM (inactive) | > 100 µM (inactive) | 44.4 µM (inactive) | 52.1 µM (inactive) | > 100 µM (inactive) | 41.5 µM (inactive)
C#C/C=C/CC1OC(C(Br)CC)CC(Br)C2CC1O2 (stereo not given) | 38.6 µM (inactive) | 40.7 | 85.7 µM (inactive) | 22.8 µM (inactive) | 42.6 µM (inactive) | 29 µM (inactive) | > 100 µM (inactive) | 80.5 µM (inactive) | > 100 µM (inactive) | > 100 µM (inactive) | 2.58 µM (inactive) | 19.1 µM (inactive) | > 100 µM (inactive) | 27.1 µM (inactive) | 48.6 µM (inactive) | > 100 µM (inactive) | > 100 µM (inactive) | 89.3 µM (inactive) | 40.9 µM (inactive) | 34.8 µM (inactive)
CCOC(=O)c1ccc(NC(=O)O/N=C(/Cl)C(C)C)cc1 | 0.953 µM (active) | 8.59 | 17 µM (inactive) | 1.82 µM (inactive) | 20.7 µM (inactive) | 1.56 µM (inactive) | 1.16 µM (inactive) | 15.8 µM (inactive) | 20 µM (inactive) | 19.6 µM (inactive) | 2.07 µM (inactive) | 19 µM (inactive) | 17.6 µM (inactive) | 4.49 µM (inactive) | 16.3 µM (inactive) | 19.1 µM (inactive) | 18.6 µM (inactive) | 16.1 µM (inactive) | 18.9 µM (inactive) | 2.09 µM (inactive)
O=[N+]([O-])c1cccc(Cl)c1Oc1ccc(S(=O)(=O)N/C(=N\O)Nc2ccc(Cl)cc2)cc1 | 2.55 µM (inactive) | 15 | 20.2 µM (inactive) | 4.76 µM (inactive) | 17.1 µM (inactive) | 14.3 µM (inactive) | 14.2 µM (inactive) | 12.7 µM (inactive) | 15.5 µM (inactive) | 12.8 µM (inactive) | 4.74 µM (inactive) | 20.3 µM (inactive) | 17 µM (inactive) | 6.01 µM (inactive) | 13.8 µM (inactive) | 16.1 µM (inactive) | 14.6 µM (inactive) | 11.9 µM (inactive) | 17.1 µM (inactive) | 15.1 µM (inactive)

Reference: ChEMBL document CHEMBL1201862, “PubChem BioAssay data set” (2004)
